SMILES strings stand for the structures. Active and inactive are the calls of the source. The calls are words filed in the database; no cut-off is given here. Peptide text beside a SMILES is read from it.

The target in experiment [1] is T1, E3 ubiquitin-protein ligase XIAP (Homo sapiens, UniProt P98170). The experiment can be described thus: Displacement of fluorescent H-Abu-Arg-Pro-Phe-Lys-NH-FAM-NH2 peptide from XIAP BIR3 domain by fluorescence polarization assay. For orientation: Polarisation of emitted light reports the rotation of a fluorescent probe.
T1 sequence (P98170 whole entry, the tested form may be a part): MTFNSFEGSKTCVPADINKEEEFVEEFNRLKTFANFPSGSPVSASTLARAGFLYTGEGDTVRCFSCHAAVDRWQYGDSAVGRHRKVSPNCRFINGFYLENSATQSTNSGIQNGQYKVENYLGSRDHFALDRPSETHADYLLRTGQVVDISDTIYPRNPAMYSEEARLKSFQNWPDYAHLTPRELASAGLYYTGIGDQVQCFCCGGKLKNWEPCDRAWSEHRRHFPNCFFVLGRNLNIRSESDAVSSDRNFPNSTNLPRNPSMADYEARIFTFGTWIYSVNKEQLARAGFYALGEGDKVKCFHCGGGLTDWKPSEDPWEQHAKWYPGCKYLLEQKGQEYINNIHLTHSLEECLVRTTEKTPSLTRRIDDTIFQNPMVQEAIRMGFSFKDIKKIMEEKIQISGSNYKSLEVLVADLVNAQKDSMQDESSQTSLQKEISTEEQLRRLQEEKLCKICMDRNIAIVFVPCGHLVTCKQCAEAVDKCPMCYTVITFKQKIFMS
Experiment [2] concerns the target T1, E3 ubiquitin-protein ligase XIAP. Briefly: Inhibition of XIAP in HEK293 cell lysate assessed as release of caspase-3 from BIR3 measuring formation of fluorescent AFC from DEVD-AFC by fluorimetry. Format: cell-free.
For experiment [3] the target is unchanged. The experiment can be described thus: Inhibition of XIAP in HEK293 cell lysate assessed as release of caspase-9 from BIR3 measuring formation of fluorescent AFC from LEHD-AFC by fluorimetry. Format: cell-free.

As for `CC(=O)NCCN(CC(=O)NCCN(CC(=O)NCCN(CC(=O)NCCN(CC(=O)NCCN(CC(=O)NCCN(CC(=O)NCCN(CC(=O)NCCN(CC(=O)N[C@@H](CCCCNC(=O)CCSC(=O)[C@H](C)N)C(N)=O)C(=O)Cn1ccc(N)nc1=O)C(=O)Cn1cnc2c(N)ncnc21)C(=O)Cn1ccc(N)nc1=O)C(=O)Cn1ccc(N)nc1=O)C(=O)Cn1ccc(N)nc1=O)C(=O)Cn1ccc(N)nc1=O)C(=O)Cn1cc(C)c(=O)[nH]c1=O)C(=O)Cn1cc(C)c(=O)[nH]c1=O`, in experiment [1], the result was inactive.

`CC[C@H](C)[C@H](NC(=O)[C@@H]1CCCN1C(=O)[C@@H](N)CS)C(=O)N[C@@H](C)C(=O)N[C@@H](CCC(N)=O)C(=O)N[C@@H](CCCCN)C(=O)NCCN(CC(=O)NCCN(CC(=O)NCCN(CC(=O)NCCN(CC(=O)NCCN(CC(=O)NCCN(CC(=O)NCCN(CC(=O)NCC(N)=O)C(=O)Cn1cnc2c(=O)[nH]c(N)nc21)C(=O)Cn1cnc2c(N)ncnc21)C(=O)Cn1ccc(N)nc1=O)C(=O)Cn1cnc2c(N)ncnc21)C(=O)Cn1cc(C)c(=O)[nH]c1=O)C(=O)Cn1ccc(N)nc1=O)C(=O)Cn1ccc(N)nc1=O`: the outcome in experiment [1] was inactive.

By IC50 is commonly meant the concentration that inhibits the measured activity by half. The low end stands for inhibition by little substance, the high end for a need for much substance. As for `CC[C@H](C)[C@H](NC(=O)[C@@H]1CCCN1C(=O)[C@H](CS)NC(=O)[C@H](C)N)C(=O)O` (H-ACPI-OH), the half-inhibitory concentration (IC50) in experiment [1] was 650 nM.

Regarding `CC[C@H](C)[C@H](NC(=O)[C@@H]1CCCN1C(=O)[C@H](CS)NC(=O)[C@H](C)N)C(=O)NCCOCCOCC(=O)NCCN(CC(=O)NCCN(CC(=O)NCCN(CC(=O)NCCN(CC(=O)NCCN(CC(=O)NCCN(CC(=O)NCCN(CC(=O)NCC(N)=O)C(=O)Cn1cnc2c(=O)[nH]c(N)nc21)C(=O)Cn1cnc2c(N)ncnc21)C(=O)Cn1ccc(N)nc1=O)C(=O)Cn1cnc2c(N)ncnc21)C(=O)Cn1cc(C)c(=O)[nH]c1=O)C(=O)Cn1ccc(N)nc1=O)C(=O)Cn1ccc(N)nc1=O`, the IC50 in experiment [1] worked out at 560 nM. Further, the inhibition entry in experiment [2] and in experiment [3] was “Dose-dependent effect” throughout.

`CC[C@H](C)[C@H](NC(=O)[C@@H]1CCCN1C(=O)[C@@H](N)CS)C(=O)NCCOCCOCC(=O)NCCN(CC(=O)NCCN(CC(=O)NCCN(CC(=O)NCCN(CC(=O)NCCN(CC(=O)NCCN(CC(=O)NCCN(CC(=O)NCC(N)=O)C(=O)Cn1cnc2c(=O)[nH]c(N)nc21)C(=O)Cn1cnc2c(N)ncnc21)C(=O)Cn1ccc(N)nc1=O)C(=O)Cn1cnc2c(N)ncnc21)C(=O)Cn1cc(C)c(=O)[nH]c1=O)C(=O)Cn1ccc(N)nc1=O)C(=O)Cn1ccc(N)nc1=O`: the result in experiment [1] was inactive.

`CC[C@H](C)[C@H](NC(=O)[C@@H]1CCCN1C(=O)[C@H](CS)NC(=O)[C@H](C)N)C(=O)N[C@@H](C)C(=O)N[C@@H](CCC(N)=O)C(=O)N[C@@H](CCCCN)C(=O)NCCN(CC(=O)NCCN(CC(=O)NCCN(CC(=O)NCCN(CC(=O)NCCN(CC(=O)NCCN(CC(=O)NCCN(CC(=O)NCC(N)=O)C(=O)Cn1cnc2c(=O)[nH]c(N)nc21)C(=O)Cn1cnc2c(N)ncnc21)C(=O)Cn1ccc(N)nc1=O)C(=O)Cn1cnc2c(N)ncnc21)C(=O)Cn1cc(C)c(=O)[nH]c1=O)C(=O)Cn1ccc(N)nc1=O)C(=O)Cn1ccc(N)nc1=O`: the 50% inhibitory concentration (IC50) in experiment [1] was 1520 nM. Moreover, the inhibition entry in experiment [2] and in experiment [3] was “Dose-dependent effect” each time.
